Assay results as given in patent publication US20220323487A1, “METERED DOSE FOR DEMODEX AND DISORDERS RELATED THERETO” (Azura Ophthalmics Ltd., priority 2019, published 2022).

Columns and labels:
[1] = in vivo; cited from earlier work
[2] = Protocol: The composition is prepared by the combination of selenium disulfide (SeS2) in combination with Petrolatum base (and in the absence of surface acting agents). Compositions comprising various concentrations of selenium disulfide are prepared, such as 0.1 wt. %, 0.5 wt. %, 1 wt. %, 1.5 wt. %, 2 wt. %, and 2.5 wt. %.
Various compositions prepared as described above are administered to the eye or eyelid (e.g., margin thereof) of albino rabbits. Various compositions are administered to distinct cohorts using various treatment protocols, such as based on frequency of administration (e.g., once daily, twice daily, every other day, and once weekly) and volume of administration (e.g., <25 μL, […] per administration). Compositions lacking selenium disulfide are administered to a separate cohort to establish a control.
Albino rabbits are evaluated, and an accurate volume of the composition is ejected from a device (e.g., micropipette) and is delivered to the lower eyelid of the rabbits. In one example, the volume is ˜25 μL (equivalent to 20 mg in weight). The rabbits are examined daily.
2.5% SeS2 at a dosing volume of 25 μL is administered to the animals.
Therefore, a reduced dose of 5 μL (equivalent to 4 mg) is placed on the lid of the rabbits.

[3] = rabbit, in vivo; cited from earlier work
[4] = rabbit, in vivo
Source text: On a subsequent study to Example 6, concentrations ranging from 0.5 wt. % to 2.5 wt. % were used on New-Zealand rabbits, once daily to twice weekly for 28 days.

Remark: listed apart in the source
[5] = cited from earlier work
[6] = tested on: Demodex folliculorum mites; test: In vitro assessment of anti-demodectic properties: viability of Demodex mites on epilated eyelashes; settings: SeS2 4%
[7] = 25 μL (20 mg) of 2.5% SeS2 with petrolatum, lower eyelid of right eye

SMILES: S=[Se]=S [SeS2, selenium disulfide]
- irritancy to rabbit dermis [1]: did not appear to be irritant
- clinical or microscopic findings ([2]; 0.5%, 1.0% or 2.5%, twice weekly or once daily, dose volume 5 μL, summary, species not stated): no clinical or microscopic findings
- keratitis, including red and swollen eyelids, animals affected ([2]; rabbit, in vivo): all animals
- ocular effects at reduced dose ([2]; rabbit, in vivo): no evidence for any of the effects
- time to onset of ocular effects after application [3]: ≤ 2 h
- ophthalmic observations versus previous study [4]: safer
- finding on clinical examination [7]: keratitis is observed with multiple punctate over the center exposed part of the cornea
- time to reported pain [7]: About 4 hours
- time to resolution of keratitis (treated with lubricants and local NSAID): ≤ 48 h
- tolerability of ointment on the lids ([5]; 0.5 percent ointment, all patients complained of burning of the conjunctiva (Rychener)): too strong
- epithelial keratitis ([5]; human, in vivo): 6 cases
- keratitis, conjunctivitis with erythematous and swollen lids ([5]; human, in vivo): Two
- death of the mites [6]: caused death of the mites
